Test results: PMC4657098, “A Review of the Updated Pharmacophore for the Alpha 5 GABA(A) Benzodiazepine Receptor Model” (International Journal of Medicinal Chemistry, 2015)
Where “and” joins values, the source holds several entries; their conditions need not be identical. Equal entries are not always repeated. Where two headings read alike, the source gives them in different places.

What was measured:
α1β3γ2 GABAA receptor = settings: cited from earlier work; for Efficacy α1 as % of control current: baseline 100
α4β2γ2 GABAA receptor = molecular target: T1, α4β2γ2 GABAA receptor (Homo sapiens, UniProt P18507+P48169); assay: Radioligand binding (McKernan and Atack), α4β2γ2; settings: Table 3; αxβ2γ2; means of two determinations; read-out: Binding affinity α4
T1 construct: expressed in transfected cells; host or cells: HEK cells
Method: (§1) Transfected HEK cells (beta2 gamma2 and desired alpha subtype) were harvested into phosphate-buffered saline, centrifuged at 3,000 g, and stored at −70°C until required. On the day of the assay, pellets were thawed and resuspended in sufficient volume of 50 mM Tris/acetate (pH 7.4 at 4°C) to give a total binding of approximately 1500–2000 dpm. […] Total assay volume was 0.5 mL and assays were carried out in 96-well plates and incubation time started by the addition of 0.1 mL of resuspended cell membranes. Following incubation for 1 hour at 4°C, assays were terminated by filtration through GF/B filters, washed with 10 mL ice cold buffer, dried, and then counted using a liquid scintillation counter. […] We have previously reported the synthesis of the following.

[1] = tested on: guinea pig airway smooth muscle; settings: 1 μM substance P; p < 0.01; cited from earlier work
[2] = tested on: dopamine neurons in the VTA; settings: cited from earlier work
[3] = tested on: human airway smooth muscle cells; settings: 10 μM; bradykinin 1 μM; cited from earlier work
[4] = tested on: human airway smooth muscle; settings: 50 μM; p < 0.01; cited from earlier work
α3β3γ2 GABAA receptor = settings: cited from earlier work; for Efficacy α3 as % of control current: baseline 100
ventral HPC neurons = settings: 0.1 mg/kg, i.v.; MAM- and saline-treated animals; cited from earlier work
α2β3γ2 GABAA receptor = settings: cited from earlier work; for Efficacy α2 as % of control current: baseline 100
MAM rats = settings: cited from earlier work
α5β3γ2 GABAA receptor = molecular target: T2, α5β3γ2 GABAA receptor (Homo sapiens, UniProt P18507+P31644); settings: cited from earlier work; for Efficacy α5 as % of control current: baseline 100
T2 construct: expressed in transfected cells; host or cells: Xenopus oocytes

α6β2γ2 GABAA receptor = molecular target: T3, α6β2γ2 GABAA receptor (Homo sapiens, UniProt P18507+Q16445); assay: Radioligand binding (McKernan and Atack), α6β2γ2; settings: Table 3; αxβ2γ2; means of two determinations; read-out: Binding affinity α6
T3 construct: expressed in transfected cells; host or cells: HEK cells
Method: as §1

rodents = settings: one study in rodents; cited from earlier work
[5] = tested on: human airway smooth muscle cells; settings: whole cell patch clamp; cited from earlier work
primates = settings: cited from earlier work
α2β3γ2 GABAA/BzR [6] = molecular target: T4, α2β3γ2 GABAA/BzR (Homo sapiens, UniProt P18507+P47869); parameters: expressed in transfected cells; host or cells: LTK cells (given for XLi-093 only); settings: Figure 4, read-out: Ki α2, cited from earlier work
α2β3γ2 GABAA/BzR [7] = molecular target: T4, α2β3γ2 GABAA/BzR; assay: Competition binding to HEK cell membranes, α2β3γ2; parameters: expressed in transfected cells; settings: Table 2; data from three separate laboratories; read-out: Affinity Ki α2
α5β3γ2 GABAA/BzR = α5β3γ2 GABAA/BzR (Homo sapiens, UniProt P18507+P31644); assay: Competition binding to HEK cell membranes, α5β3γ2; parameters: expressed in transfected cells; settings: Affinity Ki α5
α3β3γ2 GABAA/BzR [8] = molecular target: T5, α3β3γ2 GABAA/BzR (Homo sapiens, UniProt P18507+P34903); assay: Competition binding to HEK cell membranes, α3β3γ2; parameters: expressed in transfected cells; settings: Table 2; data from three separate laboratories; read-out: Affinity Ki α3
rhesus monkeys = settings: cited from earlier work
mice = settings: mice; ref Harris, DeLorey et al.; cited from earlier work
α1β3γ2 GABAA/BzR [9] = molecular target: T6, α1β3γ2 GABAA/BzR (Homo sapiens, UniProt P14867+P18507); parameters: expressed in transfected cells; host or cells: LTK cells (given for XLi-093 only); settings: Figure 4, read-out: Ki α1, cited from earlier work
α6β3γ2 GABAA/BzR [10] = molecular target: T7, α6β3γ2 GABAA/BzR (Homo sapiens, UniProt P18507+Q16445); parameters: expressed in transfected cells; host or cells: LTK cells (given for XLi-093 only); settings: read-out: Ki α6; cited from earlier work
α6β3γ2 GABAA/BzR [11] = molecular target: T7, α6β3γ2 GABAA/BzR; assay: Competition binding to HEK cell membranes, α6β3γ2; parameters: expressed in transfected cells; settings: Affinity Ki α6
rats = settings: cited from earlier work
α3β3γ2 GABAA/BzR [12] = molecular target: T5, α3β3γ2 GABAA/BzR; parameters: expressed in transfected cells; host or cells: LTK cells (given for XLi-093 only); settings: Figure 4, read-out: Ki α3, cited from earlier work
α1β3γ2 GABAA/BzR [13] = molecular target: T6, α1β3γ2 GABAA/BzR; assay: Competition binding to HEK cell membranes, α1β3γ2; parameters: expressed in transfected cells; settings: Table 2; data from three separate laboratories; read-out: Affinity Ki α1
AD rat model = assay: Spatial water maze task in AD rat model; assay type: in vivo; settings: relative to vehicle, p < 0.05
From the text: It is well known many Down syndrome patients develop Alzheimer's disease or a dementia with a very similar etiology.

C#Cc1ccc2c(c1)C(c1ccccc1F)=N[C@H](C)c1c(C(=O)OCC)ncn1-2 [SH-053-2′F-R-CH3, (2)]
Efficacy α1 as % of control current (α1β3γ2 GABAA receptor; 100 nM): 111 % of control current
Efficacy α1 as % of control current (α1β3γ2 GABAA receptor; 1 μM): 154 % of control current
Ki (α4β2γ2 GABAA receptor): > 5000 nM
remaining contractile force 30 minutes after a substance P-induced contraction [1]: significantly reduced
dopamine neuron activity in control animals ([2]; 0.1 mg/kg, i.v.): no effect
firing rate and burst activity in MAM animals ([2]; 0.1 mg/kg, i.v.): no effect
number of spontaneously firing dopamine neurons (cells/track), MAM animals ([2]; 0.1 mg/kg, i.v.): normalizes the aberrant increase
dopamine activity and locomotor response in MAM rats withdrawn from HAL [2]: unresponsive
number of spontaneously firing dopamine neurons (cells/track), MAM animals ([2]; hippocampal infusion 1 μM/side): normalizes the aberrant increase
percentage of spikes occurring in bursts, MAM and control animals ([2]; hippocampal infusion 1 μM/side): significantly reduced
cells/track in repeatedly haloperidol-treated SAL rats ([2]; rat, in vivo): reversed the haloperidol-induced reduction
firing rate of dopamine neurons in repeatedly haloperidol-treated SAL rats ([2]; rat, in vivo): increase
percentage of spikes occurring in bursts, haloperidol-treated SAL and MAM rats ([2]; rat, in vivo): no impact
bradykinin-induced increase in intracellular calcium [3]: attenuated
isoproterenol (10 nM) mediated relaxation of an acetylcholine EC50 contraction [4]: significantly enhances
Efficacy α3 as % of control current (α3β3γ2 GABAA receptor; 100 nM): 125 % of control current
Efficacy α3 as % of control current (α3β3γ2 GABAA receptor; 1 μM): 220 % of control current
evoked excitatory response of ventral HPC neurons (ventral HPC neurons): decreases
Efficacy α2 as % of control current (α2β3γ2 GABAA receptor; 100 nM): 124 % of control current
Efficacy α2 as % of control current (α2β3γ2 GABAA receptor; 1 μM): 185 % of control current
locomotor response to D-amphetamine (0.5 mg/kg i.p.), MAM rats (MAM rats; 10 mg/kg, i.p.): reduced
locomotor response to D-amphetamine in repeatedly haloperidol-treated SAL animals (MAM rats; rat, in vivo): reduced
peak locomotor response in repeatedly haloperidol-treated MAM rats (MAM rats; rat, in vivo): no effect
Efficacy α5 as % of control current (α5β3γ2 GABAA receptor; 100 nM): 183 % of control current
Efficacy α5 as % of control current (α5β3γ2 GABAA receptor; 1 μM): 387 % of control current
Ki (α6β2γ2 GABAA receptor): > 5000 nM
locomotion (rodents): decrease in locomotion
plasma membrane chloride current [5]: induced a Cl^− current
anxiolytic effect (primates): very weak anxiolytic effect

COCc1ncn2c1CN(C)C(=O)c1cc(Cl)ccc1-2 [PWZ-029 (1)]
modulation at the α1-subunit (α1β3γ2 GABAA receptor; 0.1 μM): little or no effect
efficacy type at the α1 subunit (α1β3γ2 GABAA receptor; oocytes, Sieghart et al.): very weak agonist activity
Ki (α2β3γ2 GABAA/BzR [6]; listed as 1a): > 300 nM
Ki (α2β3γ2 GABAA/BzR [6]; listed as 1c): 180 nM
Ki (α2β3γ2 GABAA/BzR [7]): > 300 nM and 180 nM
Ki (α5β3γ2 GABAA/BzR): 38.8 nM and 30 nM and 6 nM
Ki (α3β3γ2 GABAA/BzR [8]): > 300 nM and 328 nM
ORD “difficult” trials (rhesus monkeys; i.v.): increasing dose-dependent curve for successful trials
ORD “mixed” trials versus vehicle (rhesus monkeys; i.v.): no significant results
ORD, cholinergic deficits induced by scopolamine (rhesus monkeys; scopolamine 0.01 mg/kg): dose-dependently reverse the cholinergic deficits
scopolamine-induced memory impairment (mice): potently reversed
modulation at the α3-subunit (α3β3γ2 GABAA receptor; 0.1 μM): little or no effect
efficacy type at the α3 subunit (α3β3γ2 GABAA receptor; oocytes, Sieghart et al.): very weak agonist activity
Ki (α1β3γ2 GABAA/BzR [9]; listed as 1a): > 300 nM
Ki (α1β3γ2 GABAA/BzR [9]; listed as 1c): 362 nM
Ki (α6β3γ2 GABAA/BzR [10]): > 300 nM
Ki (α6β3γ2 GABAA/BzR [11]): > 300 nM
modulation at the α2-subunit (α2β3γ2 GABAA receptor; 0.1 μM): little or no effect
efficacy type at the α2 subunit (α2β3γ2 GABAA receptor; oocytes, Sieghart et al.): very weak agonist activity
efficacy type at the α5-subunit (α5β3γ2 GABAA receptor): negative allosteric modulator
modulation at the α5-subunit (α5β3γ2 GABAA receptor): moderate negative modulation
recognition memory deficit induced by 0.3 mg/kg scopolamine, 1 h delay (rats; 2 mg/kg): successfully reversed the deficit in recognition memory
object recognition, 24 h delay (rats; 2, 5 and 10 mg/kg): improved object recognition
Ki (α3β3γ2 GABAA/BzR [12]; listed as 1a): > 300 nM
Ki (α3β3γ2 GABAA/BzR [12]; listed as 1c): 328 nM
Ki (α1β3γ2 GABAA/BzR [13]): > 300 nM and 920 nM and 362 nM
latency to reach the hidden platform (memory probe trials) (AD rat model): significant decrease in the latency to reach the hidden platform
